For the experiment, the target named is BK β1 subunit (Rattus norvegicus, UniProt P97678). In words: inside-out patch clamp, single-channel NPo in excised oocyte patches. Type of experiment: cell-based. For orientation: In patch-clamp work, channel activity is measured electrically.
Chain of BK β1 subunit (P97678 whole entry): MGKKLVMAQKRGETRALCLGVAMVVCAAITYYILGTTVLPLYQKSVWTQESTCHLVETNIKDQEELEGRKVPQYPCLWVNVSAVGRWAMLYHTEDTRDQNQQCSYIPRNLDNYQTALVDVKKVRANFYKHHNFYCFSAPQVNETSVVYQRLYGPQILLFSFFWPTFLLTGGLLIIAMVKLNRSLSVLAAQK
Chain of BK β1 subunit (Q62976 whole entry partner): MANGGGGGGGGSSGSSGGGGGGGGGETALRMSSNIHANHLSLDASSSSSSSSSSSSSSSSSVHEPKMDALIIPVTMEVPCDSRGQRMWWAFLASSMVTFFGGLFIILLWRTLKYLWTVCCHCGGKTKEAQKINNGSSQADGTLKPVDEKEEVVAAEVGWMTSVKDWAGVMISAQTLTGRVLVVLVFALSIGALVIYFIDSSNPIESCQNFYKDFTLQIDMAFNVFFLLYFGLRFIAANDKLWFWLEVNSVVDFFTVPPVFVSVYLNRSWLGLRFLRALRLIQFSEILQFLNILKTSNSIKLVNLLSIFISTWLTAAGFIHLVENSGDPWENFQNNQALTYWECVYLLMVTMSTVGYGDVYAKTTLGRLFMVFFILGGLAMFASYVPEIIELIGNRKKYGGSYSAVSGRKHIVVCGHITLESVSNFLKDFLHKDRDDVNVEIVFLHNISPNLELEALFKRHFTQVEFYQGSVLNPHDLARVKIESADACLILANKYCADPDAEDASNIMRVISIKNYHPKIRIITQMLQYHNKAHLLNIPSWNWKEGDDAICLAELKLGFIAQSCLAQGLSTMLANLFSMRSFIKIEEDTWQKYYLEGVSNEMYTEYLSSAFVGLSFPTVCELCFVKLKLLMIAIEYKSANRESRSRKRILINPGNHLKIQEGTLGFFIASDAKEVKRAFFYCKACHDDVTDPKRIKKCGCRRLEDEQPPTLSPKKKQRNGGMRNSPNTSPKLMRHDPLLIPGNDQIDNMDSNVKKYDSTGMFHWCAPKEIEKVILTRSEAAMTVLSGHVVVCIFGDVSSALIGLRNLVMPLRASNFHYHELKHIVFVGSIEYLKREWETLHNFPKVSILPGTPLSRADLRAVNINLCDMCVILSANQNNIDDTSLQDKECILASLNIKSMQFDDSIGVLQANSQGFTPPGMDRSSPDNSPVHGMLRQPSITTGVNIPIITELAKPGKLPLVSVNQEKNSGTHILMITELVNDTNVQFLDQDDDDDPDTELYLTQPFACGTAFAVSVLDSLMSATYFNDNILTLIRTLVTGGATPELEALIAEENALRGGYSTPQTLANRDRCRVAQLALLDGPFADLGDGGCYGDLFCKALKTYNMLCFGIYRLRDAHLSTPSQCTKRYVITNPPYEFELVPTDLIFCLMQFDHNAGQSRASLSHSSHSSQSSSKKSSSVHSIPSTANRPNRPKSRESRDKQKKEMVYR
One may read the EC50 as the concentration at which the effect is half-maximal. In turn, `C[C@H](CCC(=O)O)[C@H]1CC[C@H]2[C@@H]3CC[C@@H]4C[C@H](O)CC[C@]4(C)[C@H]3CC[C@]12C` [LCA, 5β-cholanic acid-3α-ol] came in with an EC50 of 44 µM.
The same measure for `C[C@H](CCC#N)[C@H]1CC[C@H]2[C@@H]3CC[C@@H]4C[C@H](O)CC[C@]4(C)[C@H]3CC[C@]12C` [compound 11, 3α-hydroxy-23-cyano analog, de-acetylated derivative (11)]: 46.4 µM; for `C[C@H](CCCC(=O)O)[C@H]1CC[C@H]2[C@@H]3CC[C@@H]4C[C@H](O)CC[C@]4(C)[C@H]3CC[C@]12C` [compound 15, higher homologe acid (15, carboxyl group at C25)]: 42.8 µM.
